Measured values: patent US11214572B2, “7-site substituted pyrrole triazine compounds or pharmaceutically acceptable salts thereof, and preparation method thereof and uses thereof” (SHANGHAI INSTITUTE OF MATERIA MEDICA, CHINESE ACADEMY OF …, priority 2017, dated 2022)
Several values for one entry are separate records, joined by “and”; a condition that tells them apart may be missing. Equal values may be shown once. Entries after “also recorded” stand apart in the source; their conditions may differ. Read-outs that look alike come from different tables or passages of the source.

How the values were obtained:
[1] = Preliminary pharmacokinetic test, intragastric administration; format: in vivo, SD rats; settings: rats, 10 mg/kg versus 5 mg/kg intravenous; monomesylate
Protocol: (§1) 1. 14 healthy SD rats, male, weigh 200-220 g, were taken to be randomly divided into 4 groups, 3-4 in each group, and were administered the tested compound P-17 and compound CYH33 (compared with compound P-17, missing a methyl group on 7-position) via intragastric administration (10 mg/kg) and intravenous injection (5 mg/kg) respectively, the specific arrangements are shown in the following table 3:
(§2) The rats were fasted for 12 h before experiment, water was taken freely. The rats were fed 2 h after dosing.
Dosing via intragastric administration: 0.25 h, 0.5 h, 1.0 h, 2.0 h, 3.0 h, 4.0 h, 6.0 h, 8.0 h, and 24 h after dosing.
(§3) At the above setting time points, 0.3 ml of venous blood was taken from the retroorbital venous plexus of the rat, and placed in a heparinized test tube, centrifuged at 11,000 rpm for 5 min, then the plasma was separated, and frozen in a refrigerator at −20° C.
(§4) LC/MS/MS method was used to determine the concentration of the compounds in the plasma of rats.
(§5) The non-compartment model of Phoenix 1.3 software (Pharsight Corporation, USA) was used to calculate the pharmacokinetic parameters after dosing.

[2] = Preliminary pharmacokinetic test, intravenous injection; format: in vivo, SD rats; settings: rats, intravenous injection 5 mg/kg, tested as monomesylate
Protocol: as §1, §2
Dosing via intravenous: 5 min, 0.25 h, 0.5 h, 1.0 h, 2.0 h, 4.0 h, 6.0 h, 8.0 h, and 24 h after dosing.
as §3, §4, §5

PI3Kδ = PI3Kδ (Homo sapiens, UniProt O00329); assay: PI3K kinase activity, δ isoform; settings: for inhibition at 0.02 µM: read-out: IH (%) @ 20 nM, δ; for selectivity for PI3Kδ (in words): versus other PI3K isoforms, from Tables 1 and 2
Sequence of PI3Kδ (O00329 whole entry, canonical isoform): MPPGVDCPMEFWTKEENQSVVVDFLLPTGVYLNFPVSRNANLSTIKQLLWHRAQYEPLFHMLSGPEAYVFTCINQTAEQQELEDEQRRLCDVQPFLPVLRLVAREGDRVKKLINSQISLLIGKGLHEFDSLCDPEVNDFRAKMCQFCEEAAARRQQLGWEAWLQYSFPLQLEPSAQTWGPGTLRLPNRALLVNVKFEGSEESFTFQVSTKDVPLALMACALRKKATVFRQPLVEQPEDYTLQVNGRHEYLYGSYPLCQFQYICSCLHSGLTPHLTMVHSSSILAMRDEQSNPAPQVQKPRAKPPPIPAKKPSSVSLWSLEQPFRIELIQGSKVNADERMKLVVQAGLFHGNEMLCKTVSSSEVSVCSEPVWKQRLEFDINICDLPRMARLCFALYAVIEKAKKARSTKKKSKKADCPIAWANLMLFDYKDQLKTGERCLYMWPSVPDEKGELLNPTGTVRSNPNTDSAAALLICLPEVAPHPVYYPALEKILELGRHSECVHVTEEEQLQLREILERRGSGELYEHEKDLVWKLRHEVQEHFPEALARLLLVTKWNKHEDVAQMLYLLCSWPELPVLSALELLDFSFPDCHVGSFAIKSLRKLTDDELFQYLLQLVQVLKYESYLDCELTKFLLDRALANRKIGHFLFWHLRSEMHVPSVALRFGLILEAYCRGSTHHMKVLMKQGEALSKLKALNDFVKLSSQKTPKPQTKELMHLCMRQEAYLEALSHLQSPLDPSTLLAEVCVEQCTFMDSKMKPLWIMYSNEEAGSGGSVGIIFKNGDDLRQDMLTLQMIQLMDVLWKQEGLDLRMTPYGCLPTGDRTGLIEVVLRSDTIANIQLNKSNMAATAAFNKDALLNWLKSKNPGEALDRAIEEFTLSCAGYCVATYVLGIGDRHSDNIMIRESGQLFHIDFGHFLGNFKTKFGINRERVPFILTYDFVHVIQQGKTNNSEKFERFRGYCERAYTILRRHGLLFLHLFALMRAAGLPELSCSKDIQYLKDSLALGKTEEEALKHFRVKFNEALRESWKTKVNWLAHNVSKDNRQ
Sequence of PI3Kδ (P27986 whole entry partner, canonical isoform): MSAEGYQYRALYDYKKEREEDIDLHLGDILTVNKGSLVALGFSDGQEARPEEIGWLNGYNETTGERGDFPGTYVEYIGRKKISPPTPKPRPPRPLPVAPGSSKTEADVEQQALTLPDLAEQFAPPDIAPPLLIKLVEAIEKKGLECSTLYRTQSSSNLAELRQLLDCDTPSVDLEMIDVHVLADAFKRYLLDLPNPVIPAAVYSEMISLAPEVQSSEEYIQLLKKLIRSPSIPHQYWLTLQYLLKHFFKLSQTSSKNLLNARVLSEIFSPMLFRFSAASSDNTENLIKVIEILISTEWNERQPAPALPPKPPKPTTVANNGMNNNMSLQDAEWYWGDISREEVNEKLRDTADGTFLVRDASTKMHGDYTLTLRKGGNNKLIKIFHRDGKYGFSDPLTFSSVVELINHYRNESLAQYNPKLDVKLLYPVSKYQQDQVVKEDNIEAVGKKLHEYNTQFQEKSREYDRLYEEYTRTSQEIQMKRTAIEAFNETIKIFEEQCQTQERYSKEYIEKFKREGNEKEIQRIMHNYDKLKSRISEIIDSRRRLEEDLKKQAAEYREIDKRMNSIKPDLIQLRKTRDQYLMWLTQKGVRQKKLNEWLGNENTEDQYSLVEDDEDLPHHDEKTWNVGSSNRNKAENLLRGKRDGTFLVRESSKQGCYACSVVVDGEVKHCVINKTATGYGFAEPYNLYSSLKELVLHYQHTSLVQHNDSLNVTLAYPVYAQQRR
Protocol: (§6) Concentration setting for preliminary screening: the compounds to be tested were dissolved in DMSO (dimethyl sulfoxide) to 100 μM or 10 μM as storage solutions; for each one, 2 μL was taken to be added to 48 μL of 1× Reaction Buffer to obtain a 4 μM or 400 nM compound solution containing 4% DMSO. After well mixing, the mixture was diluted with 4% DMSO in 1× Reaction Buffer to obtain a 4 μM or 400 nM compound solution. 5 μL of each diluted solution was taken to be added to a 384-well plate, so that the final concentration of the compound in the final 20 μL of the kinase reaction system was 1 μM and 100 nM or 100 nM and 20 nM, respectively, and containing 1% DMSO.
(§7) The compounds to be tested were dissolved in DMSO to 1 mM or 10 mM as working solutions, 1 μL of each working solution was taken to be added to 24 μl of 1× Kinase Buffer A to obtain a 40 μM or 400 μM compound solution containing 4% DMSO. The compound solution was diluted by 4× gradient in sequence, 10 dilution concentrations.
(§8) Calculation of the Inhibition Rate • The inhibitory rate was calculated by the following formula: Inhibitory rate=(ERsample−ER0%)/(ER100%−ER0%)×100%

PI3Kα = PI3Kα (Homo sapiens, UniProt P42336); assay: PI3K kinase activity, α isoform; settings: for inhibition at 0.02 µM: read-out: IH (%) @ 20 nM, α
Sequence of PI3Kα (P42336 whole entry, canonical isoform): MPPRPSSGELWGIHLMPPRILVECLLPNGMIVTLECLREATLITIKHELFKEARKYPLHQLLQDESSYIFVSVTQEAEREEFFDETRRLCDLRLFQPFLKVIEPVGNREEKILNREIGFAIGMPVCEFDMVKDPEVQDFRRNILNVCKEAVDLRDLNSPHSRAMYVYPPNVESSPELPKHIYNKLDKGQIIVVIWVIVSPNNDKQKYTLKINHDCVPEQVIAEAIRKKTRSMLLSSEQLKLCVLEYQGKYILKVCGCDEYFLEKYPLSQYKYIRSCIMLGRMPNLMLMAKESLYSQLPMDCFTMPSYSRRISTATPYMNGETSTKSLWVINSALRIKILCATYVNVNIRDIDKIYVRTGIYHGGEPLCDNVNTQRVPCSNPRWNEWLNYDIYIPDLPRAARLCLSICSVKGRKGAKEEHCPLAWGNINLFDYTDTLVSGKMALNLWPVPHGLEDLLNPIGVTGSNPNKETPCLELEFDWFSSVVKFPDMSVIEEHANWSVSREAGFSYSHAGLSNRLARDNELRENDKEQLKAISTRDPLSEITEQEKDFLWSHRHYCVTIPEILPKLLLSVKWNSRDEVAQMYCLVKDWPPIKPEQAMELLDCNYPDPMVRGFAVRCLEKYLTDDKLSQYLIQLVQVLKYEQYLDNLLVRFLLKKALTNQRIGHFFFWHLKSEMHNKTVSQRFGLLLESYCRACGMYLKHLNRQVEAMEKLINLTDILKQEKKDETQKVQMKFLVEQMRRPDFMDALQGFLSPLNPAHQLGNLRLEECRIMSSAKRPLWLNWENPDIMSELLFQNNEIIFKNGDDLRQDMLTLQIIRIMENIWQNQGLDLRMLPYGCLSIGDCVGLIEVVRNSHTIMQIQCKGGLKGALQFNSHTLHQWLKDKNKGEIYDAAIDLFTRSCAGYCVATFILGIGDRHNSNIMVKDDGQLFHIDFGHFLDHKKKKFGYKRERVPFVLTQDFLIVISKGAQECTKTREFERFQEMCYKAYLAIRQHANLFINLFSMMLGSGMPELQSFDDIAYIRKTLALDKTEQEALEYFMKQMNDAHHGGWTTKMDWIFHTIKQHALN
Sequence of PI3Kα (P27986 whole entry partner, canonical isoform): as the sequence (P27986 whole entry partner, canonical isoform) above
Protocol: as §6, §7, §8

PI3Kβ = PI3Kβ (Homo sapiens, UniProt P42338); assay: PI3K kinase activity, β isoform; settings: for inhibition at 0.1 µM: read-out: IH (%) @ 100 nM, β;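 on all read-outs here: kinase reaction containing 1% DMSO, read as an emission ratio, with inhibition scaled between the 0% and 100% control ratios. IC50 values come from a ten-point fourfold dilution series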
Sequence of PI3Kβ (P42338 whole entry, canonical isoform): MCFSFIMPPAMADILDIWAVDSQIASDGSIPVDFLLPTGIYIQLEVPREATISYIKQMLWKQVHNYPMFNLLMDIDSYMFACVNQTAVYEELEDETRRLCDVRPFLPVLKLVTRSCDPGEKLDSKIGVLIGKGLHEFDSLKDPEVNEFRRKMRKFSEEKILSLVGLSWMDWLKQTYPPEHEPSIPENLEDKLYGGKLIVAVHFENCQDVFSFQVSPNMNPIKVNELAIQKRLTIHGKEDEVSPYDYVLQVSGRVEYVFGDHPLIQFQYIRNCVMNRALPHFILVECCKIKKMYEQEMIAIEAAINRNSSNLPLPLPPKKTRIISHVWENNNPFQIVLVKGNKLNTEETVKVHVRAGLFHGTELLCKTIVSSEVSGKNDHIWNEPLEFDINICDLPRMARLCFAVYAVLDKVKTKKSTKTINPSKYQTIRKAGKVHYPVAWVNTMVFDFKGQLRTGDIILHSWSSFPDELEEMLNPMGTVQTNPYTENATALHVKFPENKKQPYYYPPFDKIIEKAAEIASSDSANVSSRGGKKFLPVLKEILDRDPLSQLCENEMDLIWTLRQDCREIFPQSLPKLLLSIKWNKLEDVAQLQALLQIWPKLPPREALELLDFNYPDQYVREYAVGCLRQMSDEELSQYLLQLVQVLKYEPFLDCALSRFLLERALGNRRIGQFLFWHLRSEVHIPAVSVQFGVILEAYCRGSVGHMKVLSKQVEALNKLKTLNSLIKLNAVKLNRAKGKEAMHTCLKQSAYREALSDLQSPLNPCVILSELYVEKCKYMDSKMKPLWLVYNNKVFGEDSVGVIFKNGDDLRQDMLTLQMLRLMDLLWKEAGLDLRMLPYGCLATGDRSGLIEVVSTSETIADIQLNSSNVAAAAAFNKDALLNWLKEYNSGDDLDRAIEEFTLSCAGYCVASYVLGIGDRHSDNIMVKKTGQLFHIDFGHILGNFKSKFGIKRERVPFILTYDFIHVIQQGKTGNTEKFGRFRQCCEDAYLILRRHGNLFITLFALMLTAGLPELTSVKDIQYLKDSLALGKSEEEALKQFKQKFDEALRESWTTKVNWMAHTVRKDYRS
Sequence of PI3Kβ (P27986 whole entry partner, canonical isoform): as the sequence (P27986 whole entry partner, canonical isoform) above
Protocol: as §6, §7, §8

PI3Kγ = PI3Kγ (Homo sapiens, UniProt P48736); assay: PI3K kinase activity, γ isoform; format: biochemical; settings: for inhibition at 0.1 µM: compound 100 nM, read-out: IH (%) @ 100 nM, γ;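 on all read-outs here: kinase reaction run in 384-well plates, with inhibition normalised between the 0% and 100% reference reactions. IC50 derived from a ten-point, fourfold serial dilution series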
Sequence of PI3Kγ (P48736 whole entry, canonical isoform): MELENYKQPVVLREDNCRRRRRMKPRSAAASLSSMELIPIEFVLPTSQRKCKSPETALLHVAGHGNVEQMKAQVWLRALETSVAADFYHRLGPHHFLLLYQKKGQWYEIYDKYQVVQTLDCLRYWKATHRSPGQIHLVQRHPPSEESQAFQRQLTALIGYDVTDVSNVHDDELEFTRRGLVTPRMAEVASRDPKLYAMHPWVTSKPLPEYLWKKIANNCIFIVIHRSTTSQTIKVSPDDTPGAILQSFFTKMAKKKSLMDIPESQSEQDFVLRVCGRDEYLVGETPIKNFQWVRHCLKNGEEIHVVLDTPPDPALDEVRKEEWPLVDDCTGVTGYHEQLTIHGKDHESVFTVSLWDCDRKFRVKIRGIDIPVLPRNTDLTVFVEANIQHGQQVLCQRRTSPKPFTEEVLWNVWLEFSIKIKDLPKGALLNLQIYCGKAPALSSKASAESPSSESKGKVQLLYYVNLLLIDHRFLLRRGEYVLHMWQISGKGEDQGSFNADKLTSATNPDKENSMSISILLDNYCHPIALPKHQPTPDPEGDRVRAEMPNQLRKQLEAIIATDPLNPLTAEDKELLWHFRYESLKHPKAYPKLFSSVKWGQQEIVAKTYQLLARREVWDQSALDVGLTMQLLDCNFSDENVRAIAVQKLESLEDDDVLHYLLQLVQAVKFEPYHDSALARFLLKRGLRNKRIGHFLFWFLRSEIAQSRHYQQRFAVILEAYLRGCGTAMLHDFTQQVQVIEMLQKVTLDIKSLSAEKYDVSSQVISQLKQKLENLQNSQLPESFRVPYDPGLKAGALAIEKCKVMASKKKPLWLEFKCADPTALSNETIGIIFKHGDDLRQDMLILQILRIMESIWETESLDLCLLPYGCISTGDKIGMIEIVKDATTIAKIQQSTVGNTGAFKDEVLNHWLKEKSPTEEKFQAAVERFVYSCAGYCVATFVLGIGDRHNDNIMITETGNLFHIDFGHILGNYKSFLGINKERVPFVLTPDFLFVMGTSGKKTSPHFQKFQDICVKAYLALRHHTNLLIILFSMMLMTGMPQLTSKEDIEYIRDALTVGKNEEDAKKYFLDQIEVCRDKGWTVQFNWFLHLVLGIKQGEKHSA
Protocol: as §6, §7, §8

[3] = male, SD, rat, plasma, iv, 5 mg/kg, individual animal

COC(=O)Nc1cc(C(F)(F)F)c(-c2nc(N3CCOCC3)c3cc(CN4CCN(S(C)(=O)=O)CC4)cn3n2)cn1 [CYH33, reference compound]
F (absolute bioavailability) [1]: 36.9% | AUC(0-t) ([2]; male, SD, rat, plasma, iv, 5 mg/kg, Mean): 3540 ng·h/mL | MRT ([2]; male, SD, rat, plasma, iv, 5 mg/kg, Mean, read-out: MRT): 1.31 h | AUC(0-inf) [2, 3]: 2850 ng·h/mL | AUC(0-t) [2, 3]: 2850 ng·h/mL | clearance [2, 3]: 29.2 mL/min/kg | half-life [2, 3]: 0.83 h | MRT ([2]; male, SD, rat, plasma, iv, 5 mg/kg, individual animal, read-out: MRT): 1.1 h | Vd ([2]; male, SD, rat, plasma, iv, 5 mg/kg, individual animal, read-out: Vss): 1.93 L/kg | AUC 0 − ∞ ([2]; Mean): 3559 ng·h/mL | Cl ([2]; Mean): 24 mL/min/kg | T1/2 ([2]; Mean): 0.982 h | Vss ([2]; Mean): 1.843 L/kg | AUC 0 − t ([2]; individual animal, 5 mg/kg): 3645 ng·h/mL and 4142 ng·h/mL | AUC 0 − ∞ ([2]; individual animal, 5 mg/kg): 3655 ng·h/mL and 4172 ng·h/mL | Cl ([2]; individual animal, 5 mg/kg): 22.8 mL/min/kg and 20 mL/min/kg | MRT ([2]; individual animal, 5 mg/kg): 1.26 h and 1.57 h | T1/2 ([2]; individual animal, 5 mg/kg): 0.95 h and 1.16 h | Vss ([2]; individual animal, 5 mg/kg): 1.72 L/kg and 1.88 L/kg

Cc1c(CNCCCN(C)C)cc2c(N3CCOCC3)nc(-c3cnc(N)cc3C(F)(F)F)nn12 [Compound P-2]
IC50 (PI3Kδ): 36.6 nM | inhibition at 0.02 µM (PI3Kδ): 46% | IC50 (PI3Kα): 321 nM | inhibition at 0.02 µM (PI3Kα): 18.7% | IC50 (PI3Kβ): 2140 nM | inhibition at 0.1 µM (PI3Kβ): 4.74% | IC50 (PI3Kγ): 37600 nM | inhibition at 0.1 µM (PI3Kγ): 0.62%

COCCCNCc1cc2c(N3CCOCC3)nc(-c3cnc(N)cc3C(F)(F)F)nn2c1C [Compound P-3]
inhibition at 0.02 µM (PI3Kδ): 39.8% | inhibition at 0.02 µM (PI3Kα): 6.72% | inhibition at 0.1 µM (PI3Kβ): -0.12% | inhibition at 0.1 µM (PI3Kγ): 2.94%

Cc1c(CN2CCC(C(C)(C)O)CC2)cc2c(N3CCOCC3)nc(-c3cnc(N)cc3C(F)(F)F)nn12 [Compound P-5]
IC50 (PI3Kδ): 19.6 nM | inhibition at 0.02 µM (PI3Kδ): 53.2% | selectivity for PI3Kδ (in words) (PI3Kδ): selective inhibitory effect on PI3Kδ; also recorded: good selectivities for PI3Kδ | IC50 (PI3Kα): 424 nM | inhibition at 0.02 µM (PI3Kα): -0.6% | IC50 (PI3Kβ): 1360 nM | inhibition at 0.1 µM (PI3Kβ): 14.9% | IC50 (PI3Kγ): 4830 nM | inhibition at 0.1 µM (PI3Kγ): -2.33%

CCN1CCN(Cc2cc3c(N4CCOCC4)nc(-c4cnc(N)cc4C(F)(F)F)nn3c2C)CC1 [Compound P-6]
IC50 (PI3Kδ): 35.3 nM | inhibition at 0.02 µM (PI3Kδ): 41.4% | selectivity for PI3Kδ (in words) (PI3Kδ): selective inhibitory effect on PI3Kδ; also recorded: good selectivities for PI3Kδ | IC50 (PI3Kα): 624 nM | inhibition at 0.02 µM (PI3Kα): 69.7% | IC50 (PI3Kβ): 4570 nM | inhibition at 0.1 µM (PI3Kβ): 11.8% | IC50 (PI3Kγ): 9870 nM | inhibition at 0.1 µM (PI3Kγ): -4.8%

Cc1c(CN2CCC(N(C)C)CC2)cc2c(N3CCOCC3)nc(-c3cnc(N)cc3C(F)(F)F)nn12 [Compound P-7]
IC50 (PI3Kδ): 27.6 nM | inhibition at 0.02 µM (PI3Kδ): 53.6% | selectivity for PI3Kδ (in words) (PI3Kδ): selective inhibitory effect on PI3Kδ; also recorded: good selectivities for PI3Kδ | IC50 (PI3Kα): 439 nM | inhibition at 0.02 µM (PI3Kα): 3.6% | IC50 (PI3Kβ): 3460 nM | inhibition at 0.1 µM (PI3Kβ): 3.43% | IC50 (PI3Kγ): 15300 nM | inhibition at 0.1 µM (PI3Kγ): -7.96%

Cc1c(CN2CCN(S(C)(=O)=O)CC2)cc2c(N3CCOCC3)nc(-c3cnc(N)cc3C(F)(F)F)nn12 [Compound P-9]
IC50 (PI3Kδ): 23.7 nM | inhibition at 0.02 µM (PI3Kδ): 51.2% | IC50 (PI3Kα): 26.4 nM | inhibition at 0.02 µM (PI3Kα): 68.9% | IC50 (PI3Kβ): 1190 nM | inhibition at 0.1 µM (PI3Kβ): 12.8% | IC50 (PI3Kγ): 283 nM | inhibition at 0.1 µM (PI3Kγ): 31.4%

Cc1c(CN2CCN(S(C)(=O)=O)CC2)cc2c(N3CCOC[C@@H]3C)nc(-c3cnc(N)cc3C(F)(F)F)nn12 [Compound P-10]
IC50 (PI3Kδ): 79.7 nM | inhibition at 0.02 µM (PI3Kδ): 39.7% | IC50 (PI3Kα): 104 nM | inhibition at 0.02 µM (PI3Kα): 80.5% | IC50 (PI3Kβ): 1770 nM | inhibition at 0.1 µM (PI3Kβ): 7.84% | IC50 (PI3Kγ): 202 nM | inhibition at 0.1 µM (PI3Kγ): 32.1%

CS(=O)(=O)N1CCN(Cc2cc3c(N4CCOCC4)nc(-c4cnc(N)cc4C(F)(F)F)nn3c2Cl)CC1 [Compound P-11]
IC50 (PI3Kδ): 28.1 nM | inhibition at 0.02 µM (PI3Kδ): 50.3% | IC50 (PI3Kα): 21.3 nM | inhibition at 0.02 µM (PI3Kα): 72.8% | IC50 (PI3Kβ): 1440 nM | inhibition at 0.1 µM (PI3Kβ): 15.8% | IC50 (PI3Kγ): 248 nM | inhibition at 0.1 µM (PI3Kγ): 19.4%

Cc1c(CN2CCN(C(=O)C(C)(C)O)CC2)cc2c(N3CCOCC3)nc(-c3cnc(N)cc3C(F)(F)F)nn12 [Compound P-13]
inhibition at 0.02 µM (PI3Kδ): 41.2% | inhibition at 0.02 µM (PI3Kα): 30.5% | inhibition at 0.1 µM (PI3Kβ): 2.34% | inhibition at 0.1 µM (PI3Kγ): 2.16%

Cc1c(CN2CCN(C(=O)[C@H](C)O)CC2)cc2c(N3CCOCC3)nc(-c3cnc(N)cc3C(F)(F)F)nn12 [Compound P-14]
IC50 (PI3Kδ): 85.6 nM | inhibition at 0.02 µM (PI3Kδ): 63.3% | IC50 (PI3Kα): 77.5 nM | inhibition at 0.02 µM (PI3Kα): 24.8% | IC50 (PI3Kβ): 2650 nM | inhibition at 0.1 µM (PI3Kβ): 3.44% | IC50 (PI3Kγ): 1950 nM | inhibition at 0.1 µM (PI3Kγ): 6.83%

Cc1c(CN2CCN(S(C)(=O)=O)CC2)cc2c(N3CCOCC3)nc(-c3cnc(NC(=O)NC4CC4)cc3C(F)(F)F)nn12 [Compound P-20]
IC50 (PI3Kδ): 3.73 nM | inhibition at 0.02 µM (PI3Kδ): 83.1% | IC50 (PI3Kα): 10.8 nM | inhibition at 0.02 µM (PI3Kα): 102% | IC50 (PI3Kβ): 124 nM | inhibition at 0.1 µM (PI3Kβ): 57.4% | IC50 (PI3Kγ): 36.6 nM | inhibition at 0.1 µM (PI3Kγ): 68.3%

CCNC(=O)Nc1cc(C(F)(F)F)c(-c2nc(N3CCOCC3)c3cc(CN4CCN(S(C)(=O)=O)CC4)c(C)n3n2)cn1 [Compound P-21]
IC50 (PI3Kδ): 6.22 nM | inhibition at 0.02 µM (PI3Kδ): 107% | IC50 (PI3Kα): 21.8 nM | inhibition at 0.02 µM (PI3Kα): 89.3% | IC50 (PI3Kβ): 139 nM | inhibition at 0.1 µM (PI3Kβ): 46.3% | IC50 (PI3Kγ): 37.5 nM | inhibition at 0.1 µM (PI3Kγ): 74.1%

Cc1c(CN2CCN(S(C)(=O)=O)CC2)cc2c(N3CCOCC3)nc(-c3cnc(NC(=O)NC(C)C)cc3C(F)(F)F)nn12 [Compound P-22]
IC50 (PI3Kδ): 29.5 nM | inhibition at 0.02 µM (PI3Kδ): 46.5% | IC50 (PI3Kα): 122 nM | inhibition at 0.02 µM (PI3Kα): 50% | IC50 (PI3Kβ): 1540 nM | inhibition at 0.1 µM (PI3Kβ): 15.1% | IC50 (PI3Kγ): 311 nM | inhibition at 0.1 µM (PI3Kγ): 30.3%

Cc1c(CN2CCN(S(C)(=O)=O)CC2)cc2c(N3CCOCC3)nc(-c3cnc(NC(=O)Nc4ccc(F)cc4)cc3C(F)(F)F)nn12 [Compound P-23]
IC50 (PI3Kδ): 10.1 nM | inhibition at 0.02 µM (PI3Kδ): 77.1% | IC50 (PI3Kα): 18.7 nM | inhibition at 0.02 µM (PI3Kα): 77.9% | IC50 (PI3Kβ): 109 nM | inhibition at 0.1 µM (PI3Kβ): 32.6% | IC50 (PI3Kγ): 47.1 nM | inhibition at 0.1 µM (PI3Kγ): 67%

CS(=O)(=O)N1CCN(Cc2cc3nc(-c4cccc5[nH]ncc45)nc(N4CCOCC4)c3s2)CC1 [GDC0941, 2-(1H-indazol-4-yl)-6-[[4-(methylsulfonyl)-1-piperazinyl]methyl]-4-(4-morpholinyl)thieno[3,2-D]pyrimidine, reference compound]
inhibition at 0.02 µM (PI3Kδ): 56.3% | inhibition at 0.02 µM (PI3Kα): 41.7% | inhibition at 0.1 µM (PI3Kβ): 21.1%
